Data taken from patent US9877981B2, “NAD biosynthesis and precursors for the treatment and prevention of cancer and proliferation” (President and Fellows of Harvard College, priority 2012, dated 2018).

Assays:
C2C12 myoblasts = assay: mtDNA content and ETC gene expression in C2C12 myoblasts; format: cell-based, mouse; details: C2C12 myoblasts treated with DMOG, 16 h
Method: C2C12 cell line (ATCC) was cultured in low glucose Dulbecco's modified eagle medium (DMEM) (Invitrogen) supplemented with 10% FBS (Invitrogen) and a mix of antibiotic and antimycotic (Invitrogen). To inhibit SIRT1, cells were treated the vehicle (0.001% DMSO) or 10 μM EX-527 (Tocris) for 12 h. C2C12 myoblasts were infected with an empty or SIRT1 adenovirus as described before (Gerhart-Hines et al., 2007) and the media was replaced with fresh DMEM for additional 48 h, after that the cells were treated as described before. To test the effects of hypoxia and HIFα stabilization in genome asyncrony, C2C12 myoblasts were exposed to 1% oxygen for 16 h or treated with the vehicle (0.001% DMSO) or DMOG (Cayman) for the same period of time.
RNA from skeletal muscle tissue and C2C12 cells were extracted with RNeasy mini kit (Qiagen) according to the instructions and quantified using the NanoDrop 1000 spectrophotometer (Thermo Scientific). cDNA was synthesized with the iSCRIP cDNA synthesis kit (BioRad) using 600 ng of RNA. Quantitative RT-PCR reactions were performed using 1 μM of primers and LightCycler® 480 SYBR Green Master (Roche) on an LightCycler® 480 detection system (Roche). Calculations were performed by a comparative method (2-ΔCT) using 18S as an internal control. For mtDNA analysis, total DNA was extracted with DNeasy blood and tissue kit (Qiagen). mtDNA was amplified using primers specific for the mitochondrial cytochrome c oxidase subunit 2 (COX2) gene and normalized to genomic DNA by amplification of the ribosomal protein s18 (rps18) nuclear gene. Primers were designed using the IDT software (IDT) and the primer sequences can be found in Table 1.

HIF-1α = assay: Immunoblot of HIF-1α in PGC-1α/β KO myotubes; format: cell-based, mouse; details: PGC-1α/β knockout myotubes treated with DMOG
Method: Primary myoblasts cells were isolated from WT, SIRT1 KO (Price et al., 2012) and PGC-1α/β KO (Zechner et al., 2010) mice as previously described (Price et al., 2012). WT and PGC-1α/β KO primary myoblasts were plated and allowed to differentiate into myotubes by replacing the media with low glucose DMEM supplemented with 2% horse serum (Sigma-Aldrich) for 4 days. After the differentiation the cells were infected with empty vector or flag-SIRT1 adenovirus as described before (Gerhart-Hines et al., 2007). Media was replaced with fresh DMEM supplemented with 2% horse serum (Sigma-Aldrich) for an additional 48 hr and, after that the cells were harvested for the different assays as described. […]
Protein extracts from tissue or C2C12 cells were obtained by lysis in ice-cold lysis buffer (150 mM NaCl, 10 mM Tris HCl (pH 7.4), 1 mM EDTA, 1 mM EGTA, 1% Triton X-100, 0.5% NP-40) supplemented with a cocktail of protease and phosphatase inhibitors (Roche). Protein content was determined by the Bradford protein assay (Biorad), and 50 μg proteins were run on SDS-PAGE under reducing conditions. […] The immunostaining was detected using horseradish peroxidase-conjugated anti-rabbit or anti-mouse immunoglobulin for 1 h at room temperature.

TFAM promoter = TFAM promoter activity by luciferase assay in primary WT myoblasts; format: cell-based, mouse; details: DMOG vs DMSO
Method: TFAM promoter, VHL promoter, HRE and c-Myc activity were determined using a luciferase-based system. Luciferase activity was measured using the Dual-Luciferase Reporter Assay System (Promega) with Renilla as the reference.
TFAM promoter activity was evaluated using a TFAM promotes-luc plasmid. A fragment of the mouse Tfam promoter (1.4 kb upstream of the coding sequence) was cloned into a pGL4.15 vector (Promega). Luciferase activity was measured using the Dual-Luciferase Reporter Assay System (Promega) with Renilla as the reference 48 h after transfection.

[1] = tested on: HIF-1α target genes (PGK-1, Glut1, PDK1 and Vegfa); assay: qPCR of HIF-1α target genes in gastrocnemius of treated mice; format: in vivo; details: 3- and 24-month-old mice, NMN 500 mg/kg IP one week
Method: C57BL/6J mice of 3, 6, 22, 24, or 30 months of age were obtained from the National Institutes of Aging mouse aging colony. Mice were acclimated for at least one-week prior to sacrifice. 3, and 24-month-old mice were given interperitoneal (IP) injections of 500 mg NMN/kg body weight per day or the equivalent volume of PBS for 7 consecutive days at 5:00 pm and 7:00 am on day 8 and sacrificed 4 hr after last injection. All animal studies followed the guidelines of and were approved by the Harvard Institutional Animal Care and Use Committee
RNA from skeletal muscle tissue and C2C12 cells were extracted with RNeasy mini kit (Qiagen) according to the instructions and quantified using the NanoDrop 1000 spectrophotometer (Thermo Scientific). cDNA was synthesized with the iSCRIP cDNA synthesis kit (BioRad) using 600 ng of RNA. Quantitative RT-PCR reactions were performed using 1 μM of primers and LightCycler® 480 SYBR Green Master (Roche) on an LightCycler® 480 detection system (Roche). Calculations were performed by a comparative method (2-ΔCT) using 18S as an internal control. […]
RNA from skeletal muscle and aorta were extracted with RNeasy mini kit (Qiagen) according to the instructions and quantified using the NanoDrop 1000 spectrophotometer (Thermo Scientific). cDNA was synthesized with the iSCRIP cDNA synthesis kit (BioRad) using 600 ng of RNA. […]

SMILES | expression of mitochondrially-encoded ETC genes (C2C12 myoblasts) | expression of nuclear-encoded ETC components (C2C12 myoblasts) | mtDNA content (C2C12 myoblasts) | HIF-1α protein (HIF-1α) | full length TFAM promoter activity (TFAM promoter) | TFAM promoter activity with c-Myc consensus sequence mutation (TFAM promoter; c-Myc binding site absent) | expression of HIF-1α target genes [1]
COC(=O)CNC(=O)C(=O)OC [DMOG, dimethyloxaloylglycine] | specific decline | not the nuclear-encoded components | specific decline in mtDNA content | stabilizes HIF-1α protein | reduces the full length TFAM promoter activity | does not have an additive effect | 
NC(=O)c1ccc[n+]([C@@H]2O[C@H](COP(=O)([O-])O)[C@@H](O)[C@H]2O)c1 [NMN, nicotinamide mononucleotide] |  |  |  |  |  |  | suppressed the expression of HIF-1α target genes
